Test results taken from patent US12091426B2, “Bifunctional degraders of hematopoietic progenitor kinase and therapeutic uses thereof” (Nurix Therapeutics, Inc., priority 2021, dated 2024).

Molecular target: T1, HPK1 (Homo sapiens, UniProt Q92918)
T1 construct: A HiBiT tag was introduced by CRISPR on the N terminus of HPK1 in Jurkat cells; host or cells: Jurkat cells (ATCC TIB-152), monoclonal line with CRISPR knock-in of HiBiT at the endogenous HPK1 locus
Experiment: HPK1 Cellular HiBit Degradation Assay
Assay type: cell-based
Conditions: HiBiT HPK1 Jurkat cells, 24 hrs; for DC50: concentration at which 50% of HPK1 was remaining, read-out: DC50 Category; for Dmax: Jurkat, read-out: Dmax Category
In short: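 Degraders are dosed in an 11-point series (10 uM to 0.1 nM final) onto Jurkat cells carrying an N-terminal HiBiT tag on endogenous HPK1. After 24 hrs at 37° C, lysis-based HiBiT luminescence quantifies remaining HPK1 relative to vehicle, and curve fitting gives DC50 and Dmax.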

[1] = maximum degradation vs DMSO vehicle control

T1 sequence (Q92918 whole entry): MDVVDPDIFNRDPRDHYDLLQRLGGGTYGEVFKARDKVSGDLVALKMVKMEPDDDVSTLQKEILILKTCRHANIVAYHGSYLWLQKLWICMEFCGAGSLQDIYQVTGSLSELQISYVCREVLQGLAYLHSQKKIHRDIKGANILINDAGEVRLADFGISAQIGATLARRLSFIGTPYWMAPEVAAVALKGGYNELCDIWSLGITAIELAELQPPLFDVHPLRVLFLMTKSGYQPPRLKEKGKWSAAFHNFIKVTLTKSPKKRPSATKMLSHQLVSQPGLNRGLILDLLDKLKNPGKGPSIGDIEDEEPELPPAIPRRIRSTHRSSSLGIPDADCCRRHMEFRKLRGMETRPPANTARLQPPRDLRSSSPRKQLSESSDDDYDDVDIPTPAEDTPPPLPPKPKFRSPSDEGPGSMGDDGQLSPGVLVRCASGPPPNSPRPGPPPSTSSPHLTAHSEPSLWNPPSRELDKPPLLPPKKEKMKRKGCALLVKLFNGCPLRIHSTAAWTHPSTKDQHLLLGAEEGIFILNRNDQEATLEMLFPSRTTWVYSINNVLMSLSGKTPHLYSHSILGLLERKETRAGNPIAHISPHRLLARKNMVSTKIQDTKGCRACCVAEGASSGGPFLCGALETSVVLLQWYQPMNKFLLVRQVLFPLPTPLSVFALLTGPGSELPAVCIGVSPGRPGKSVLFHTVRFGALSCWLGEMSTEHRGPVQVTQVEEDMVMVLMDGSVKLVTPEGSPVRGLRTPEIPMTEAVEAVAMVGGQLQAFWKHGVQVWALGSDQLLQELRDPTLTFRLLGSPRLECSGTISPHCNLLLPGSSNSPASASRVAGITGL

| Compound | DC50 [nM] | Dmax [1] [%] | Dmax Category [1] |
| --- | --- | --- | --- |
| CC(C)n1cnc2cc(-c3ccc4c(c3)N([C@H]3C[C@@H](N5CCCCC5)C3)C(=O)C43CCN(C(=O)C4(C)CCN(C(=O)C5CCN(c6ccc(N7CCC(=O)NC7=O)cn6)CC5)CC4)CC3)nc(Nc3ccncc3F)c21 [Example 117, 1-[6-(4-{4-[(6-{4-[(3-fluoropyridin-4-yl)amino]-3-(propan-2-yl)-3H-imidazo[4,5-c]pyridin-6-yl}-2-oxo-1-[(1S,3S)-3-(piperidin-1-yl)cyclobutyl]-1,2-dihydrospiro[indole-3,4′-piperidin]-1′-yl)carbonyl]-4-methylpiperidine-1-carbonyl}piperidin-1-yl)pyridin-3-yl]-1,3-diazinane-2,4-dione] | < 100 | > 85 | – |
| CC(C)n1cnc2cc(-c3ccc4c(c3)N([C@H]3C[C@@H](N5CCCCC5)C3)C(=O)C43CCN(C(=O)C4CCN(C(=O)[C@H]5CC[C@H](C(=O)N6CCc7cc(N8CCC(=O)NC8=O)ccc7C6)CC5)CC4)CC3)nc(Nc3ccccc3F)c21 [Example 49, 1-{2-[(1R,4R)-4-{4-[(6-{4-[(2-fluorophenyl)amino]-3-(propan-2-yl)-3H-imidazo[4,5-c]pyridin-6-yl}-2-oxo-1-[(1S,3S)-3-(piperidin-1-yl)cyclobutyl]-1,2-dihydrospiro[indole-3,4′-piperidin]-1′-yl)carbonyl]piperidine-1-carbonyl}cyclohexanecarbonyl]-1,2,3,4-tetrahydroisoquinolin-6-yl}-1,3-diazinane-2,4-dione] | 100 to 500 | 50 to 70 | – |
| CC(C)n1cnc2cc(-c3ccc4c(c3)N([C@H]3C[C@@H](N5CCCCC5)C3)C(=O)C43CCN(C(=O)C4(C)CCN(C(=O)C5CCN(c6ccc([C@H]7CCC(=O)NC7=O)cn6)CC5)CC4)CC3)nc(NC3CC3)c21 [Example 213, (3R)-3-(6-{4-[4-({6-[4-(cyclopropylamino)-3-(propan-2-yl)-3H-imidazo[4,5-c]pyridin-6-yl]-2-oxo-1-[(1S,3S)-3-(piperidin-1-yl)cyclobutyl]-1,2-dihydrospiro[indole-3,4′-piperidin]-1′-yl}carbonyl)-4-methylpiperidine-1-carbonyl]piperidin-1-yl}pyridin-3-yl)piperidine-2,6-dione] | < 100 | – | B (B: >70%-<85%) |
| CC(C)n1cnc2cc(-c3ccc4c(c3)N([C@H]3C[C@@H](N5CCCCC5)C3)C(=O)C43CCN(C(=O)c4ccc(C(=O)N(C)C5CCN(c6ccc(C7CCC(=O)NC7=O)cn6)CC5)cc4)CC3)nc(Nc3ccccc3F)c21 (mixture of isomers) [Example 141, N-(1-{5-[(3RS)-2,6-dioxopiperidin-3-yl]pyridin-2-yl}piperidin-4-yl)-4-[(6-{4-[(2-Fluorophenyl)amino]-3-(propan-2-yl)-3H-imidazo[4,5-c]pyridin-6-yl}-2-oxo-1-[(1S,3S)-3-(piperidin-1-yl)cyclobutyl]-1,2-dihydrospiro[indole-3,4′-piperidin]-1′-yl)carbonyl]-N-methylbenzamide] | 500 to 1000 | 50 to 70 | – |
| CC(C)n1cnc2cc(-c3ccc4c(c3)N([C@H]3C[C@@H](N5CCCCC5)C3)C(=O)C43CCN(C(=O)C4CCN(C(=O)[C@H]5CC[C@H](Oc6ccc(C7CCC(=O)NC7=O)cc6)CC5)CC4)CC3)nc(Nc3ccncc3F)c21 (mixture of isomers) [Example 61, (3RS)-3-(4-{[(1R,4R)-4-{4-[(6-{4-[(3-fluoropyridin-4-yl)amino]-3-(propan-2-yl)-3H-imidazo[4,5-c]pyridin-6-yl}-2-oxo-1-[(1S,3S)-3-(piperidin-1-yl)cyclobutyl]-1,2-dihydrospiro[indole-3,4′-piperidin]-1′-yl)carbonyl]piperidine-1-carbonyl}cyclohexyl]oxy}phenyl)piperidine-2,6-dione] | < 100 | 50 to 70 | – |
| CC(C)n1cnc2cc(-c3ccc4c(c3)N([C@H]3C[C@@H](N5CCCCC5)C3)C(=O)C43CCN(C(=O)C4CCN(C(=O)C5CCN(c6ccc(N7CCC(=O)NC7=O)cn6)CC5)CC4)CC3)nc(Nc3ccccc3F)c21 [Example 80, 1-[6-(4-{4-[(6-{4-[(2-fluorophenyl)amino]-3-(propan-2-yl)-3H-imidazo[4,5-c]pyridin-6-yl}-2-oxo-1-[(1S,3S)-3-(piperidin-1-yl)cyclobutyl]-1,2-dihydrospiro[indole-3,4′-piperidin]-1′-yl)carbonyl]piperidine-1-carbonyl}piperidin-1-yl)pyridin-3-yl]-1,3-diazinane-2,4-dione] | < 100 | 70 to 85 | – |
| CC(C)n1cnc2cc(-c3ccc4c(c3)N([C@H]3C[C@@H](N5CCCCC5)C3)C(=O)C43CCN(C(=O)C4CC5CCC(C4)N5C(=O)C4CCN(c5ccc(C6CCC(=O)NC6=O)cc5)CC4)CC3)nc(NC3CC3)c21 (mixture of isomers) [Example 289, (3RS)-3-(4-{4-[3-({6-[4-(cyclopropylamino)-3-(propan-2-yl)-3H-imidazo[4,5-c]pyridin-6-yl]-2-oxo-1-[(1S,3S)-3-(piperidin-1-yl)cyclobutyl]-1,2-dihydrospiro[indole-3,4′-piperidin]-1′-yl}carbonyl)-8-azabicyclo[3.2.1]Octane-8-carbonyl]piperidin-1-yl}phenyl)piperidine-2,6-dione] | < 100 | 70 to 85 | – |

The next lines start with results.

| DC50 [nM] | Dmax [1] [%] | Compound | Dmax Category [1] |
| --- | --- | --- | --- |
| 100 to 500 | 70 to 85 | CC(C)n1cnc2cc(-c3ccc4c(c3)N([C@H]3C[C@@H](N5CCCCC5)C3)C(=O)C43CCN(C(=O)C4CCN(C(=O)[C@H]5CCN(c6ccc(C7CCC(=O)NC7=O)cn6)C5)CC4)CC3)nc(Nc3ccccc3F)c21 (mixture of isomers) [Example 65, (3RS)-3-{6-[(3S)-3-{4-[(6-{4-[(2-fluorophenyl)amino]-3-(propan-2-yl)-3H-imidazo[4,5-c]pyridin-6-yl}-2-oxo-1-[(1S,3S)-3-(piperidin-1-yl)cyclobutyl]-1,2-dihydrospiro[indole-3,4′-piperidin]-1′-yl)carbonyl]piperidine-1-carbonyl}pyrrolidin-1-yl]pyridin-3-yl}piperidine-2,6-dione] | – |
| 100 to 500 | 50 to 70 | CC(C)n1cnc2cc(-c3ccc4c(c3)N([C@H]3C[C@@H](N5CCCCC5)C3)C(=O)C43CCN(C(=O)C4CC5CCC4N(C(=O)C4CCN(c6ccc(C7CCC(=O)NC7=O)cn6)CC4)C5)CC3)nc(NC3CC3)c21 (mixture of isomers) [Example 283, (3RS)-3-(6-{4-[6-({6-[4-(cyclopropylamino)-3-(propan-2-yl)-3H-imidazo[4,5-c]pyridin-6-yl]-2-oxo-1-[(1S,3S)-3-(piperidin-1-yl)cyclobutyl]-1,2-dihydrospiro[indole-3,4′-piperidin]-1′-yl}carbonyl)-2-azabicyclo[2.2.2]Octane-2-carbonyl]piperidin-1-yl}pyridin-3-yl)piperidine-2,6-dione] | – |
| < 100 | 50 to 70 | CC(C)n1cnc2cc(-c3ccc4c(c3)N([C@H]3C[C@@H](N5CCCCC5)C3)C(=O)C43CCN(C(=O)C4CCN(C(=O)CN5CCN(c6ccc(C7CCC(=O)NC7=O)cn6)CC5)CC4)CC3)nc(NC3CC3)c21 (mixture of isomers) [Example 94, (3RS)-3-[6-(4-{2-[4-({6-[4-(cyclopropylamino)-3-(propan-2-yl)-3H-imidazo[4,5-c]pyridin-6-yl]-2-oxo-1-[(1S,3S)-3-(piperidin-1-yl)cyclobutyl]-1,2-dihydrospiro[indole-3,4′-piperidin]-1′-yl}carbonyl)piperidin-1-yl]-2-oxoethyl}piperazin-1-yl)pyridin-3-yl]piperidine-2,6-dione] | – |
| < 100 | 50 to 70 | CC(C)n1cnc2cc(-c3ccc4c(c3)N([C@H]3C[C@@H](N5CCCCC5)C3)C(=O)C43CCN(C(=O)[C@H]4CC[C@@H](C(=O)N5CCC(Nc6ccc(C7CCC(=O)NC7=O)cn6)CC5)CC4)CC3)nc(NC3CC3)c21 (mixture of isomers) [Example 29, (3RS)-3-[6-({1-[(1S,4S)-4-({6-[4-(cyclopropylamino)-3-(propan-2-yl)-3H-imidazo[4,5-c]pyridin-6-yl]-2-oxo-1-[(1S,3S)-3-(piperidin-1-yl)cyclobutyl]-1,2-dihydrospiro[indole-3,4′-piperidin]-1′-yl}carbonyl)cyclohexanecarbonyl]piperidin-4-yl}amino)pyridin-3-yl]piperidine-2,6-dione] | – |
| 100 to 500 | 70 to 85 | CC(C)n1cnc2cc(-c3ccc4c(c3)N([C@H]3C[C@@H](N5CCCCC5)C3)C(=O)C43CCN(C(=O)C4CCN(C(=O)CN5CCN(c6ccc(C7CCC(=O)NC7=O)cn6)CC5)CC4)CC3)nc(Nc3ccncc3F)c21 (mixture of isomers) [Example 96, (3RS)-3-{6-[4-(2-{4-[(6-{4-[(3-fluoropyridin-4-yl)amino]-3-(propan-2-yl)-3H-imidazo[4,5-c]pyridin-6-yl}-2-oxo-1-[(1S,3S)-3-(piperidin-1-yl)cyclobutyl]-1,2-dihydrospiro[indole-3,4′-piperidin]-1′-yl)carbonyl]piperidin-1-yl}-2-oxoethyl)piperazin-1-yl]pyridin-3-yl}piperidine-2,6-dione] | – |
| < 100 | 70 to 85 | CC(C)n1cnc2cc(-c3ccc4c(c3)N([C@H]3C[C@@H](N5CCCCC5)C3)C(=O)C43CCN(C(=O)C4(F)CCCN(C(=O)C5CCN(c6ccc(C7CCC(=O)NC7=O)cn6)CC5)C4)CC3)nc(NC3CC3)c21 (mixture of isomers) [Example 280, (3RS)-3-(6-{4-[3-({6-[4-(cyclopropylamino)-3-(propan-2-yl)-3H-imidazo[4,5-c]pyridin-6-yl]-2-oxo-1-[(1S,3S)-3-(piperidin-1-yl)cyclobutyl]-1,2-dihydrospiro[indole-3,4′-piperidin]-1′-yl}carbonyl)-3-fluoropiperidine-1-carbonyl]piperidin-1-yl}pyridin-3-yl)piperidine-2,6-dione] | – |
